Data on two compounds can be found in BindingDB's records for doi:10.1021/jm00046a002 (Upjohn, 1994).

A word on the Ki: it is the equilibrium dissociation constant of an inhibitor or competing ligand from its target. Low values mean tighter binding, high ones weaker binding.

The target of assay [1] is T1, Dimer of Gag-Pol polyprotein [514-612] (Human immunodeficiency virus 2, UniProt P04584).
T1 construct: 514-612
T1 sequence (P04584 whole entry): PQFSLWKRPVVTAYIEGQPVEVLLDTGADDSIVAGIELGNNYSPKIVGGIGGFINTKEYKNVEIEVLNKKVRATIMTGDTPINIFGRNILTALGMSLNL
The assay can be described thus: Protease Inhibition Assay. From the text: (§1) HIV-1 protease was purified and refolded from E. coli inclusion bodies. The substrate used spans the p17-p24 processing site (R-V-S-Q-N-Y-P-I-V-Q-N-K) and was derivatized with biotin and fluorescein isothiocyanate (FITC) at the amino and carboxy termini. In the presence of HIV-l protease, the substrate is rapidly cleaved into two parts. The biotinylated amino terminal fragment binds to the avidin beads while the FITC-containing carboxy1 terminal fragment is removed through the membrane. […] The bound fluorescence is obtained by processing on an IDEXX Screen Machine. Determination of Ki values with this assay requires analysis under conditions in which substrate concentration resides substantially below Km and the inhibitor concentrations greatly exceeds the Ki value and the enzyme concentration.

The target of assay [2] is T2, Dimer of Gag-Pol polyprotein [489-587] (Human immunodeficiency virus 1, UniProt P12497).
T2 construct: 489-587
The assay can be described thus: Protease Inhibition Assay.
From the text: as §1

SMILES strings stand for the structures.

`CCC(Cc1ccccc1)c1cc(O)c(C(CC)c2ccccc2)c(=O)o1` (configuration not stated) [4-hydroxy-6-(1-phenylbutan-2-yl)-3-(1-phenylpropyl)-2H-pyran-2-one] registered a Ki in assay [1] of 32 nM.

Consider `O=c1oc2c(c(O)c1C(c1ccccc1)C1CC1)CCCCCC2` (configuration not stated), for which the inhibition constant Ki in assay [2] turned out to be 15 nM.
